Reference: PubChem BioAssay AID248 (DTP/NCI, 2004)
“And” between values parts separate entries of the source, which are not always exact repeats. Identical values can stand only once. Toxic doses and inconclusive results are not listed. Rule as the data show it: active = T/C of 150% or more; inactive = T/C below 125%.

System: L1210 leukemia ip in BDF1 mice, survival T/C
Test: NCI In Vivo Anticancer Drug Screen. Data for tumor model L1210 Leukemia (intraperitoneal) in B6D2F1 (BDF1) mice
Conditions: endpoint: mean survival time, higher = longer survival
Procedure, shortened: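 Tumor was transplanted into mice, which were then dosed with test compound or vehicle alone. Survival was recorded for each group, and the treated figure was expressed relative to the control figure.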

Measured: T/C

COc1cc2c(c(OC)c1OC)-c1ccc(SCc3ccccc3)c(=O)cc1[C@@H](NC(C)=O)CC2
inactive: dose: 6.25 mg/kg/injection, schedule: Q01DX009 (ip), vehicle: Klucel (hydroxypropylcellulose) (HPC) 106 % of control | dose: 8.2 mg/kg/injection, schedule: Q01DX009 (ip), vehicle: Klucel (hydroxypropylcellulose) (HPC) 121 % of control | dose: 12.5 mg/kg/injection, schedule: Q01DX009 (ip), vehicle: Klucel (hydroxypropylcellulose) (HPC) 124 % of control | dose: 18.0 mg/kg/injection, schedule: Q01DX009 (ip), vehicle: Klucel (hydroxypropylcellulose) (HPC) 101 % of control | dose: 25.0 mg/kg/injection, schedule: Q01DX009 (ip), vehicle: Klucel (hydroxypropylcellulose) (HPC) 115 % of control and 92 % of control

CC(=O)OC1CCC2(C)C(CCC3C2CC(=O)C2(C)C3CC(Sc3ccc(N(CCCl)CCCl)cc3)C2C(C)=O)C1 (configuration not stated)
inactive: dose: 100.0 mg/kg/injection, schedule: Q01DX001 (sc), vehicle: steriod suspending solution 108 % of control | dose: 200.0 mg/kg/injection, schedule: Q01DX001 (sc), vehicle: steriod suspending solution 103 % of control | dose: 400.0 mg/kg/injection, schedule: Q01DX001 (sc), vehicle: steriod suspending solution 105 % of control

Cc1ccc(-n2c(O)c(N=Nc3ccc(Br)cc3)c(=O)n(-c3ccc(I)cc3)c2=S)cc1
inactive: dose: 50.0 mg/kg/injection, schedule: Q01DX001 (ip), vehicle: Klucel (hydroxypropylcellulose) (HPC) 100 % of control | dose: 100.0 mg/kg/injection, schedule: Q01DX001 (ip), vehicle: Klucel (hydroxypropylcellulose) (HPC) 109 % of control | dose: 200.0 mg/kg/injection, schedule: Q01DX001 (ip), vehicle: Klucel (hydroxypropylcellulose) (HPC) 106 % of control

Cc1ccccc1NC(=S)Nc1ccccc1
inactive: dose: 100.0 mg/kg/injection, schedule: Q04DX002 (ip), vehicle: gum acacia 96 % of control | dose: 200.0 mg/kg/injection, schedule: Q04DX002 (ip), vehicle: gum acacia 96 % of control | dose: 400.0 mg/kg/injection, schedule: Q04DX002 (ip), vehicle: gum acacia 89 % of control

CC(O)CN(CC(C)O)c1ccccc1 (configuration not stated)
inactive: dose: 100.0 mg/kg/injection, schedule: Q01DX009 (ip), vehicle: saline with Tween-80 102 % of control | dose: 100.0 mg/kg/injection, schedule: Q04DX003 (ip), vehicle: saline with Tween-80 102 % of control | dose: 200.0 mg/kg/injection, schedule: Q01DX009 (ip), vehicle: saline with Tween-80 94 % of control | dose: 200.0 mg/kg/injection, schedule: Q04DX003 (ip), vehicle: saline with Tween-80 103 % of control | dose: 400.0 mg/kg/injection, schedule: Q04DX003 (ip), vehicle: saline with Tween-80 101 % of control

NC(CCSC(c1ccccc1)c1ccccc1)C(=O)O (configuration not stated)
inactive: dose: 100.0 mg/kg/injection, schedule: Q01DX001 (ip), vehicle: saline 101 % of control | dose: 200.0 mg/kg/injection, schedule: Q01DX001 (ip), vehicle: saline 97 % of control | dose: 400.0 mg/kg/injection, schedule: Q01DX001 (ip), vehicle: saline 97 % of control
